Experimental data from patent US20260133193A1, “COMPOSITIONS AND METHODS FOR TREATING INFLAMMATORY DISEASES” (University of Washington, priority 2018, published 2026).
“Also recorded” adds a separate entry of the source.

System: FcgRIIA on neutrophils
Assay: FcgRIIA shedding, flow cytometry of neutrophil cell surface FcgRs
Type: cell-based, human
Conditions: flow cytometry
Description: To determine the mechanism for the TLR-induced reduction in RNP-IC phagocytosis, we analyzed the neutrophil surface expression of FcgRs after exposure to TLR ligand. Neutrophils were activated with R848 and cell surface expression of FcgRs analyzed by flow cytometry. The results were presented as FcgR levels as compared to no R848 added (% of control). The experiment was repeated five (FcgRI), seven (FcgRIII), and twenty-five (FcgRIIA) times; combined results were compared using paired t test (FcgRIIA, P<0.0001; FcgRI, P=0.027; FcgRIII, P=0.0044). […] In this experiment, neutrophils were activated with the TLR7/8 agonist R848 and analyzed for FcgRIIA at different time-points and concentrations. The experiment was repeated four (concentration) and six (kinetics) times; combined results were compared using paired t test (30 min, P=0.0158; 60 min, P<0.0001; 120 min, P=0.0003; 0.125 μg/mL, P=0.0071; 0.25 μg/mL, P=0.0058; 0.5 μg/mL, P=0.0008; 1 μg/mL, P<0.0001; 2 μg/mL, P<0.0001). […] For these experiments, neutrophils were activated with TLR ligands (LPS, 1 μg/mL, PAM3CSK4 (5 μg/mL), CpG DNA (2 μg/mL), Loxoribine (0.1 mM), CL075 (2.5 μg/mL) or R848 (2 μg/mL)) for 60 minutes or 4 hours and analyzed for FcgRIIA, FcgRII or CD11b and CD66b cell surface expression by flow cytometry. Experiments were repeated six (LPS, P=0.0008), eight (CpG DNA, P=0.035; Loxoribine, P<0.0001, and CL075, P<0.0001), ten (PAM3CSK4, P<0.0001) and forty times (R848, P<0.0001); combined results were compared using paired t test. Additional experiments were repeated four and eight times; combined results were compared using paired t test (CD11b: R848, P<0.0001; LPS, P=0.0002; PAM, P<0.0001; CpG DNA, P<0.0001; CD66b: R848, P<0.0001; LPS, P<0.0001; PAM, P<0.0001; CpG DNA, P=0.014).
Neutrophils were activated by LPS (1 μg/mL), R848 (2 μg/mL), PAM3CSK4 (5 μg/mL), Loxoribine (0.1 mM), CL075 (2.5 μg/mL) or CpG DNA (2 μg/mL) for 30 minutes, followed by analysis of cell surface expression of CD32A (IV.3; Stemcell Technologies, FUN-2, BioLegend), CD16 (clone 3G8), CD64 (clone 10.1), and CD66b (all from BioLegend) by flow cytometry. For intracellular staining, neutrophils were fixed in 2% paraformaldehyde for 10 minutes, permeabilized with saponin (diluted 1:1000 in PBS) for 15 minutes and stained with anti-CD32A antibodies diluted 1:100. In some experiments, neutrophils were incubated with inhibitors (DPI (25 μM, Sigma), apocynin (100 μM, Sigma), GM-6001 (10 μM, Enzo Life Sciences), LY294002 (10 μM), cOmplete Protease Inhibitor Cocktail Tablets (1× dissolved in H2O, Roche), neutrophil elastase IV inhibitor (25 μM, Calbiochem), E-64 (1 μM, Sigma), 4-(2-Aminoethyl)benzenesulfonyl fluoride hydrochloride (AEBSF, 0.1 mM, Sigma), CMK (25 μM, Enzo Life Sciences), cytochalasin B (5 μM, Sigma) or chymostatin (10 μg/mL, Sigma)) or recombinant furin (100 ng/mL, maximal dose tolerated by the neutrophils, Peprotech) 30 minutes prior to addition of stimuli. In some experiments cell surface levels of B cell activating factor (BAFF, Biolegend) was analyzed according to the same protocol as described above. Monocytes and pDCs were detected using antibodies to CD14 (BioLegend) and CD304 (Miltenyi Biotech), respectively.

Structure (SMILES): CCOCc1nc2c(N)nc3ccccc3c2n1CC(C)(C)O [R848]
- neutrophil cell surface expression of FcgRIIA after stimulus (clone IV.3, vs non-stimulated): significantly reduced; also recorded: time- and dose-dependent
- neutrophil surface levels of FcgRIIIB and FcgRI after stimulus (vs no R848): increased
